The source of these data is US11505579B2, “Methods of treatment and related compositions” (ASCEND BIOPHARMACEUTICALS LTD, priority 2020, dated 2022).

The structures appear in SMILES notation.

For one assay, the system named is B16F10 tumours. As to the kind of experiment: Tumour growth and survival of B16F10 tumour-bearing mice (B16F10-e357 study). The class given is in vivo, mouse. As to conditions: for mice alive after day 12: culled at ethical end point.
The test system of assay [1] is operable basal cell carcinoma. The note with it: Vismodegib 150 mg daily over 12 weeks; Sofen et al. (2015); cited from earlier work.

Protocol for B16F10 tumours: The B16F10 murine colon carcinoma cell line was maintained in DMEM medium containing 10% fetal bovine serum, 2 mM glutamine, 100 units/mL sodium penicillin G, 25 μg/mL gentamicin, and 100 μg/mL streptomycin sulfate. The tumour cells were cultured in tissue culture flasks in a humidified incubator at 37° C., in an atmosphere of 5% CO2 and 95% air.
B16F10 cells were harvested during log phase growth and resuspended in PBS. Each mouse was injected subcutaneously in the right flank with 5×10^5 cells (in a 0.1 mL cell suspension). Tumours were calipered in two dimensions to monitor growth as their mean volume approached the desired 30 to 60 mm^3 range. Tumour size, in mm^3, was calculated from:
[formula] where w=width and l=length, in mm, of the tumour. Tumour weight can be estimated based on the assumption that 1 mg is equivalent to 1 mm^3 of tumour volume.
Eight days after tumour cell implantation, on Day 1 of the study, animals were sorted into eight groups (n=10 per group) according to tumour volume, with individual tumour volumes ranging from 32 to 63 mm^3 and group mean tumour volumes ranging from 41 to 42 mm^3. Tumour progression was monitored using caliper measurements three times weekly for the duration of the study.
Vismodegib and Ad5-mIFNg (stock concentration 3.3×10^12 viral particles/mL) were stored at −80° C. prior to formulation. On each day of dosing, Vismodegib was dissolved in vehicle 2 (75% PEG400:25% D5W (5% dextrose in water)) to obtain 5 mg/mL and 10 mg/mL dosing solutions which delivered a dose of 50 mg/kg and 100 mg/kg when administered in a volume of 10 mL/kg (0.2 mL per 20 g mouse), adjusted to the body weight of each animal.
On the first day of dosing, Ad5-mIFNg was thawed rapidly and diluted in vehicle 1 (1 M saccharose, 54 mg/L Tween® 80, 10 mM Tris, 1 mM MgCl2, 150 mM NaCl, pH 8) to obtain dosing solutions of 5×10^11 particles/mL and 2×10^11 particles/mL, which delivered 1×10^10 particles/animal when dosed in a fixed volume of 20 μL and 50 μL per animal, respectively.
On Day 1 of the study, female mice bearing established B16F10 tumours were sorted into eight groups (n=10 per group) and began dosing according to the treatment plan summarized in Table 2. Vehicle 1 and Ad5-mIFNg (1×10^10 particles per animal) were administered intratumourally (itu) in a fixed volume of either 20 μL or 50 μL; vehicle 2 and Vismodegib were administered orally (po) in a volume of 10 mL/kg (0.2 mL per 20 g mouse), adjusted to the body weight of each animal. The groups were as follow:
Group 1 served as the control group and received 20 μL vehicle 1 itu once a day (qd) for three days (qd×3) and vehicle 2 po qd×7.
Group 2 received 20 μL vehicle 1 itu qd×3 and 50 mg/kg vismodegib po qd×7.
Group 3 received 1×10^10 particles/animal Ad5-mIFNg in 20 μL itu qd×3 and vehicle 2.
Group 4 received 1×10^10 particles/animal Ad5-mIFNg 1 itu qd×3 and 50 mg/kg vismodegib 2 po qd×7.
Group 5 received 20 μL vehicle 1 itu once a week for a week (qwk×1) followed by 50 μL vehicle 1 itu qwk×1 (starting on Day 8) in addition to vehicle 2 po three times a week (tiwk) to Day 10.
Group 6 received 20 μL vehicle 1 itu once a week for a week (qwk×1) followed by 50 μL vehicle 1 itu qwk×1 (starting on Day 8) and 100 mg/kg Vismodegib in vehicle 2 po tiwk to Day 13. […]

For `CS(=O)(=O)c1ccc(C(=O)Nc2ccc(Cl)c(-c3ccccn3)c2)c(Cl)c1` [Vismodegib], the “tumour growth compared to the control vehicle treated groups” value is given as “did not significantly reduce tumour growth” with B16F10 tumours (G2: Vismodegib 50 mg/kg po qd×7, vehicle 1 itu qd×3) and “did not significantly reduce tumour growth” with B16F10 tumours (G6: Vismodegib 100 mg/kg po tiwk×3, vehicle 1 itu). Also, the “mice alive after day 12” value in the assay on B16F10 tumours (G2: Vismodegib 50 mg/kg po qd×7) and with B16F10 tumours (G6: Vismodegib 100 mg/kg po tiwk×3) was “none” each time. For the same molecule, the “mice still alive on day 36 (number of mice)” value with B16F10 tumours (G2: Vismodegib only 50 mg/kg po qd×7, day 36) is reported as “no mice”. Moreover, the “loco-regional CHC” value in assay [1] is listed as 16%.
